Reference: US12595243B2, “Modulators of extracellular signal-regulated kinase” (GEN1E LIFESCIENCES INC., priority 2023, dated 2026)
Like-named read-outs stand apart in the source and are kept apart here.

Columns and labels:
[1] = system: melanoma cell line A375; test: Cytotoxicity in cancer cell lines (CellTiter-Glo), A375; conditions: A375 cells, mean of three tests
Method: (§2) The cytotoxicity of test compounds was determined for several cell lines including melanoma cell line RPMI-7951, melanoma cell line Sk-Mel-28, melanoma cell line A375, melanoma cell line U87, glioblastoma cell line U87, immortalized human T lymphocyte Jurkat cells, and human pancreatic carcinoma cell line PL-45.
(§3) All cells were obtained from ATCC. RPMI, DMEM, EMEM and pen/strep were obtained from Invitrogen. Normocin® was obtained from InvivoGen. FBS was obtained from Gibco. Cell viability reagent Cell-titer glow was obtained from Promega.
(§4) The growth media for A375 and PL45 cells was DMEM supplemented with antibiotic/anti-mycotic pen/strep and Normocin® (InvivoGen) and 10% FBS.
(§5) Ten (10) mM solutions of each of the test compounds were prepared in dimethyl sulfoxide (DMSO) and serially diluted in DMSO to provide solutions having concentrations of the test compound of 3 mM, 1 mM, 0.3 mM, 0.1 mM, 0.03 mM, or 0.01 mM. Forty (40) μL of each of the solutions were further diluted to 400 μL in the cell specific complete media to provide 10× stock solutions having a 1 mM, 300 μM, 100 μM, 30 μM, 10 μM, 3 μM, 1 μM, or 0.3 μM of the test compound. Ten (10) μL of DMSO was diluted to 400 μL in the complete media and used as the 0 μM control.
(§6) For the cytotoxicity studies, all cells were grown in their respective complete media. Confluent cells were harvested and plated into two 96-well tissue culture treated plates at 5,000-8,000 cells/wells in 180 μL media. Twenty (20) μL of each of the 10× stock solutions were added to the wells and mixed.
(§7) After incubating for 24 h, media was aspirated out and replaced with 180 μL/well of the fresh media and 20 μL/well of the 10× stock solutions in duplicate wells in duplicate plates (Plates 1 and 2; and 3 and 4) and in quadruplicate wells (Plate 5) were added, mixed and cultured for 48 hours. The final concentrations of each test compound were 100 μM, 30 μM, 10 μM, 3 μM, 1 μM, 0.3 μM, 0.1 μM and 0 μM.
(§8) After 48 hours and/or 72 hours following addition of the test compounds, one plate each was removed from the incubator, the media aspirated out, 100 μL of CellTiter-Glo® reagent added to each well, and the resulting luminescent signals measured using a VICTOR-2® plate reader.
(§9) The data from the plate reader were exported to GraphPad (Prism) and data processed using non-linear regression and EC50 value determined.

[2] = system: human pancreatic carcinoma cell line PL-45; test: Cytotoxicity in cancer cell lines (CellTiter-Glo), PL-45; conditions: PL45, 48 h, read-out: Cytotoxicity EC50 at 48 hours, PL-45
Method: as §2, §3, §4, §5, §6, §7, §8, §9

[3] = system: glioblastoma cell line U87; test: Cytotoxicity in cancer cell lines (CellTiter-Glo), U87; assay type: cell-based
Source text: (§1) All cells were obtained from ATCC. […] Normocin® was obtained from InvivoGen. FBS was obtained from Gibco. […] All test compounds were synthesized as described herein.

[4] = Cytotoxicity in primary cells (CellTiter-Glo), PBMC; assay type: cell-based; conditions: mean of three tests
Source text: as §1

[5] = system: melanoma cell line Sk-Mel-28; test: Cytotoxicity in cancer cell lines (CellTiter-Glo), Sk-Mel-28; assay type: cell-based
Source text: as §1

[6] = system: immortalized human T lymphocyte Jurkat cells; test: Cytotoxicity in cancer cell lines (CellTiter-Glo), Jurkat; assay type: cell-based; conditions: Jurkat cells, mean of three tests
Source text: as §1

[7] = system: melanoma cell line RPMI-7951; test: Cytotoxicity in cancer cell lines (CellTiter-Glo), RPMI-7951; assay type: cell-based; conditions: Homo sapiens
Source text: as §1

[8] = Homo sapiens, A-375, 48 h, read-out: Cytotoxicity EC50 at 48 hours, A375, 48 h
[9] = Homo sapiens, U-87 MG, 48 h; U87 cells; mean of three tests; read-out: Cytotoxicity EC50 at 48 hours, U87
[10] = Homo sapiens, SK-MEL-28, 48 h, 48 h, Sk-Mel-28 cells, mean of three tests, read-out: Cytotoxicity EC50 at 48 hours, Sk mel
[11] = Homo sapiens, SK-MEL-28, 72 h, 72 h, Sk-Mel-28 cells, mean of three tests, read-out: Cytotoxicity EC50 at 72 hours, Sk mel
[12] = Homo sapiens, A-375, 72 h, read-out: Cytotoxicity EC50 at 72 hours, A375, 72 h
[13] = 48 h, read-out: Cytotoxicity EC50 at 48 hours, Jurkat
[14] = 72 h, read-out: Cytotoxicity EC50 at 72 hours, Jurkat
[15] = Homo sapiens, U-87 MG, 72 h; U87 cells; mean of three tests; read-out: Cytotoxicity EC50 at 72 hours, U87
[16] = RPMI-7951, 48 h, read-out: Cytotoxicity EC50 at 48 hours, RPMI
[17] = RPMI-7951, 72 h, read-out: Cytotoxicity EC50 at 72 hours, RPMI
[18] = read-out: Cytotoxicity EC50 at 48 hours, A375, 48 h

## O=S1(=O)C=CC(OS(=O)(=O)c2cccc(Oc3ccccc3)c2)C1 (stereo not drawn) [(25), 1,1-dioxido-2,3-dihydrothiophen-3-yl 3-phenoxybenzenesulfonate]
[1]; [8]
  EC50: 6 µM
[2]
  EC50: 0.9 µM

## O=S1(=O)C=CC(OS(=O)(=O)c2ccc(Oc3ccccc3)cc2)C1 (stereo not drawn) [(18), 1,1-dioxido-2,3-dihydrothiophen-3-yl 4-phenoxybenzenesulfonate]
[1]; [8]
  EC50: 2 µM
[3]; [9]
  EC50: 1 µM
[4]
  EC50 at 48 h: 0.2 µM
  EC50 at 72 h: 21 µM
[5]; [10]
  EC50: 2 µM
[5]; [11]
  EC50: 3 µM

## COc1cc(Oc2ccccc2)ccc1S(=O)(=O)OC1C=CS(=O)(=O)C1 (stereo not drawn) [(41), 1,1-dioxido-2,3-dihydrothiophen-3-yl 2-methoxy-4-phenoxybenzenesulfonate]
[1]; [8]
  EC50: 0.6 µM
[2]
  EC50: 0.5 µM

## O=S1(=O)C=CC(OS(=O)(=O)c2ccc(OC3CCCCC3)cc2)C1 (stereo not drawn) [(36), 1,1-dioxido-2,3-dihydrothiophen-3-yl 4-(cyclohexyloxy)benzenesulfonate]
[1]; [8]
  EC50: 4.3 µM
[2]
  EC50: 2.1 µM

## O=S1(=O)C=CC(OS(=O)(=O)c2ccc(S(=O)(=O)c3ccccc3)cc2)C1 (stereo not drawn) [(45), 1,1-dioxido-2,3-dihydrothiophen-3-yl 4-(phenylsulfonyl)benzenesulfonate]
[1]; [8]
  EC50: 25 µM
[2]
  EC50: 2.4 µM

## O=S1(=O)C=CC(OS(=O)(=O)c2ccc3ccccc3c2)C1 (stereo not drawn) [(1), 1,1-dioxido-2,3-dihydrothiophen-3-yl naphthalene-2-sulfonate]
[1]; [8]
  EC50: 4 µM
[1]; [12]
  EC50: 0.8 µM
[6]; [13]
  EC50: 3 µM
[6]; [14]
  EC50: 5 µM
[2]
  EC50: 2.1 µM
[3]; [9]
  EC50: 1 µM
[3]; [15]
  EC50: 4 µM
[4]
  EC50 at 48 h: 0.4 µM
  EC50 at 72 h: 0.4 µM
[7]; [16]
  EC50: 1 µM
[7]; [17]
  EC50: 4 µM
[5]; [10]
  EC50: 4 µM
[5]; [11]
  EC50: 0.3 µM

## O=C(c1ccccc1)c1ccc(S(=O)(=O)OC2C=CS(=O)(=O)C2)cc1 (stereo not drawn) [(38), 1,1-dioxido-2,3-dihydrothiophen-3-yl 4-benzoylbenzenesulfonate]
[1]; [8]
  EC50: 0.2 µM
[2]
  EC50: 0.5 µM

## CC(C)Nc1cc(-c2c[nH]c(C(=O)N[C@H](CO)c3cccc(Cl)c3)c2)c(Cl)cn1 [Ulixertinib, ulixertinib, reference compound]
[1]; [8]
  EC50: 0.6 µM
[2]
  EC50: 14 µM
[4]
  EC50 at 48 h: 31 µM

## O=S1(=O)C=CC(OS(=O)(=O)c2ccc(C3CCCCC3)cc2)C1 (stereo not drawn) [(34), 1,1-dioxido-2,3-dihydrothiophen-3-yl 4-cyclohexylbenzenesulfonate]
[1]; [8]
  EC50: 1.5 µM
[2]
  EC50: 0.9 µM

## O=S1(=O)C=CC(OS(=O)(=O)c2ccc(-c3ccccc3)cc2)C1 (stereo not drawn) [(33), 1,1-dioxido-2,3-dihydrothiophen-3-yl [1,1′-biphenyl]-4-sulfonate]
[1]; [18]
  EC50: 1 µM
[2]
  EC50: 2.3 µM

## O=S1(=O)C=CC(OS(=O)(=O)c2cccc(-c3ccccc3)c2)C1 (stereo not drawn) [(26), 1,1-dioxido-2,3-dihydrothiophen-3-yl [1,1′-biphenyl]-3-sulfonate]
[1]; [8]
  EC50: 7 µM
[2]
  EC50: 1 µM

## O=S1(=O)C=CC(OS(=O)(=O)c2ccc(C(O)c3ccccc3)cc2)C1 (stereo not drawn) [(39), 1,1-dioxido-2,3-dihydrothiophen-3-yl 4-(hydroxy(phenyl)methyl)benzenesulfonate]
[1]; [8]
  EC50: 1.3 µM
[2]
  EC50: 1.5 µM

## Cc1cc(Oc2ccccc2)ccc1S(=O)(=O)OC1C=CS(=O)(=O)C1 (stereo not drawn) [(40), 1,1-dioxido-2,3-dihydrothiophen-3-yl 2-methyl-4-phenoxybenzenesulfonate]
[1]; [8]
  EC50: 0.3 µM
[2]
  EC50: 0.2 µM

## COS(=O)(=O)c1ccc2ccccc2c1 [(30), methyl naphthalene-2-sulfonate]
[1]; [8]
  EC50: > 100 µM
[2]
  EC50: 8.8 µM

## O=S1(=O)C=CC(OS(=O)(=O)c2ccc(Sc3ccccc3)cc2)C1 (stereo not drawn) [(44), 1,1-dioxido-2,3-dihydrothiophen-3-yl 4-(phenylthio)benzenesulfonate]
[1]; [8]
  EC50: 3.21 µM
[2]
  EC50: 0.8 µM

## O=S1(=O)C=CC(OS(=O)(=O)c2ccc(-c3ccccc3)cc2)C1 (stereo not drawn) [(17), 1,1-dioxido-2,3-dihydrothiophen-3-yl [1,1′-biphenyl]-4-sulfonate]
[1]; [12]
  EC50: 10 µM
[1]; [18]
  EC50: 2.6 µM
[6]; [13]
  EC50: 9 µM
[6]; [14]
  EC50: 2 µM
[3]; [9]
  EC50: 2 µM
[3]; [15]
  EC50: 0.9 µM
[4]
  EC50 at 48 h: 0.5 µM
  EC50 at 72 h: 0.5 µM
[7]; [16]
  EC50: 1 µM
[7]; [17]
  EC50: 0.4 µM
[5]; [10]
  EC50: 3.2 µM
[5]; [11]
  EC50: 0.8 µM

## O=S1(=O)C=CC(OS(=O)(=O)c2ccc(Cc3ccccc3)cc2)C1 (stereo not drawn) [(28), 1,1-dioxido-2,3-dihydrothiophen-3-yl 4-benzylbenzenesulfonate]
[1]; [8]
  EC50: 14 µM
[2]
  EC50: 0.9 µM

## COc1cc(S(=O)(=O)OC2C=CS(=O)(=O)C2)ccc1Oc1ccccc1 (stereo not drawn) [(43), 1,1-dioxido-2,3-dihydrothiophen-3-yl 3-methoxy-4-phenoxybenzenesulfonate]
[1]; [8]
  EC50: 3.12 µM
[2]
  EC50: 0.61 µM

## O=C(OC1C=CS(=O)(=O)C1)c1ccc(Oc2ccccc2)cc1 (stereo not drawn) [(23), 1,1-Dioxido-2,3-dihydrothiophen-3-yl 4-phenoxybenzoate]
[1]; [8]
  EC50: 23 µM
[2]
  EC50: 8.3 µM

## O=C(COC1C=CS(=O)(=O)C1)c1ccc2ccccc2c1 (stereo not drawn) [(8), 2-((1,1-dioxido-2,3-dihydrothiophen-3-yl)oxy)-1-(naphthalen-2-yl)ethan-1-one]
[1]; [8]
  EC50: 11 µM
[1]; [12]
  EC50: 46 µM
[6]; [13]
  EC50: 0.5 µM
[6]; [14]
  EC50: 0.5 µM
[3]; Homo sapiens, U-87 MG; 48 h; U87 cells; mean of three tests; read-out: Cytotoxicity EC50 at 48 hours, U87
  EC50: > 100 µM
[3]; Homo sapiens, U-87 MG; 72 h; U87 cells; mean of three tests; read-out: Cytotoxicity EC50 at 72 hours, U87
  EC50: 37 µM
[7]; [16]
  EC50: 20 µM
[7]; [17]
  EC50: 16 µM
[5]; Homo sapiens, SK-MEL-28, 48 h, read-out: Cytotoxicity EC50 at 48 hours, Sk mel
  EC50: > 100 µM
[5]; Homo sapiens, SK-MEL-28, 72 h, read-out: Cytotoxicity EC50 at 72 hours, Sk mel
  EC50: 77 µM

## CN(C1=CS(=O)(=O)CC1)S(=O)(=O)c1ccc2ccccc2c1 [(19), N-(1,1-dioxido-4,5-dihydrothiophen-3-yl)-N-methylnaphthalene-2-sulfonamide]
[1]; [8]
  EC50: > 100 µM
[6]; [13]
  EC50: > 100 µM
[3]; [9]
  EC50: > 100 µM
[7]; [16]
  EC50: > 100 µM
[5]; 48 h, Sk-Mel-28 cells, mean of three tests, read-out: Cytotoxicity EC50 at 48 hours, Sk mel
  EC50: > 100 µM
[5]; [10]
  EC50: 82 µM

## O=C(Cc1ccc2ccccc2c1)NC1C=CS(=O)(=O)C1 (stereo not drawn) [(15), N-(1,1-dioxido-2,3-dihydrothiophen-3-yl)-2-(naphthalen-2-yl)acetamide]
[1]; [8]
  EC50: 42 µM
[6]; [13]
  EC50: 26 µM
[3]; [9]
  EC50: 100 µM
[7]; [16]
  EC50: 36 µM
[5]; [10]
  EC50: 73 µM

## O=S1(=O)C=CC(OS(=O)(=O)c2cccc(OC3CCCCC3)c2)C1 (stereo not drawn) [(37), 1,1-dioxido-2,3-dihydrothiophen-3-yl 3-(cyclohexyloxy)benzenesulfonate]
[1]; [8]
  EC50: 2.8 µM
[2]
  EC50: 1.6 µM

## O=S1(=O)C=CC(OCc2ccc3ccccc3c2)C1 (stereo not drawn) [(4), 3-(naphthalen-2-ylmethoxy)-2,3-dihydrothiophene 1,1-dioxide]
[1]; [8]
  EC50: 19 µM
[1]; [12]
  EC50: 5 µM
[6]; [13]
  EC50: 7 µM
[6]; [14]
  EC50: 4 µM
[3]; [9]
  EC50: > 100 µM
[3]; [15]
  EC50: 53 µM
[7]; [16]
  EC50: 44 µM
[7]; [17]
  EC50: 26 µM
[5]; [10]
  EC50: 78 µM
[5]; [11]
  EC50: 42 µM

## Cc1cc(S(=O)(=O)OC2C=CS(=O)(=O)C2)ccc1Oc1ccccc1 (stereo not drawn) [(42)]
[1]; [8]
  EC50: 0.5 µM
[2]
  EC50: 1.2 µM

## O=S1(=O)C=CC(OS(=O)(=O)c2ccc(COc3ccccc3)cc2)C1 (stereo not drawn) [(29), 1,1-dioxido-2,3-dihydrothiophen-3-yl 4-(phenoxymethyl)benzenesulfonate]
[1]; [8]
  EC50: 10 µM
[2]
  EC50: 1 µM

## O=S1(=O)C=CC(OS(=O)(=O)c2cccc(C3CCCCC3)c2)C1 (stereo not drawn) [(35), 1,1-dioxido-2,3-dihydrothiophen-3-yl 3-cyclohexylbenzenesulfonate]
[1]; [8]
  EC50: 1 µM
[2]
  EC50: 1.2 µM

## O=S1(=O)C=CC(OCc2ccc(-c3ccccc3)cc2)C1 (stereo not drawn) [(5), 3-([1,1′-biphenyl]-4-ylmethoxy)-2,3-dihydrothiophene 1,1-dioxide]
[1]; [8]
  EC50: 80 µM
[1]; [12]
  EC50: 75 µM
[6]; [13]
  EC50: 6 µM
[6]; [14]
  EC50: 2 µM
[3]; [9]
  EC50: > 100 µM
[3]; [15]
  EC50: > 100 µM
[7]; [16]
  EC50: 72 µM
[7]; [17]
  EC50: 86 µM
[5]; [10]
  EC50: > 100 µM
[5]; [11]
  EC50: > 100 µM

## O=C(OC1C=CS(=O)(=O)C1)c1ccc(-c2ccccc2)cc1 (stereo not drawn) [(24), 1,1-dioxido-2,3-dihydrothiophen-3-yl [1,1′-biphenyl]-4-carboxylate]
[1]; [8]
  EC50: > 100 µM
[2]
  EC50: 49 µM

## CN(C1=CCS(=O)(=O)C1)S(=O)(=O)c1ccc2ccccc2c1 [(20), N-(1,1-dioxido-2,5-dihydrothiophen-3-yl)-N-methylnaphthalene-2-sulfonamide]
[1]; [8]
  EC50: > 100 µM
[6]; [13]
  EC50: > 100 µM
[3]; [9]
  EC50: > 100 µM
[7]; [16]
  EC50: > 100 µM
[5]; [10]
  EC50: > 100 µM
